Tests used:
Experiment in all cases: Competitive isoTOP-ABPP in situ (fragment-treated cells)
Type in all cases: cell-based
[1] = target: T1, cysteines in MDA-MB-231 and Ramos cells (Homo sapiens, UniProt Q5T0N5); conditions: 200 μM, insitu, 231
T1 sequence (Q5T0N5 1-605): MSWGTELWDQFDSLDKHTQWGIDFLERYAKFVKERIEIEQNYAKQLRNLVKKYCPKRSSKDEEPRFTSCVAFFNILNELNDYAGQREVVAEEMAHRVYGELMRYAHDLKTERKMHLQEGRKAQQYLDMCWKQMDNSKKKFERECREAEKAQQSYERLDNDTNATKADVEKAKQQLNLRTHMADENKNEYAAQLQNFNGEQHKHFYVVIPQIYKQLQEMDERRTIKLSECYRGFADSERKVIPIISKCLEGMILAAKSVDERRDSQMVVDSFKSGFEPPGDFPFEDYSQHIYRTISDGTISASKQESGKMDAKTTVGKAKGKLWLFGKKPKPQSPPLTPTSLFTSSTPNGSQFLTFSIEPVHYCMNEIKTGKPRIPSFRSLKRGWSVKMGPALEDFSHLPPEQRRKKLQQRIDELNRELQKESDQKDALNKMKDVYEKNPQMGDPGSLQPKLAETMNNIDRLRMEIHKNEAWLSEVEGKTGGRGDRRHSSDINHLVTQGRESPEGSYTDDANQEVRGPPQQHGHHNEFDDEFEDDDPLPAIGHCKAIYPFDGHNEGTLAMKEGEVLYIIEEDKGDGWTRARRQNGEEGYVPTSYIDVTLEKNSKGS

[2] = target: T2, cysteines in MDA-MB-231 and Ramos cells (Homo sapiens, UniProt P21980); conditions: 200 μM, insitu, 231
T2 sequence (P21980 1-687): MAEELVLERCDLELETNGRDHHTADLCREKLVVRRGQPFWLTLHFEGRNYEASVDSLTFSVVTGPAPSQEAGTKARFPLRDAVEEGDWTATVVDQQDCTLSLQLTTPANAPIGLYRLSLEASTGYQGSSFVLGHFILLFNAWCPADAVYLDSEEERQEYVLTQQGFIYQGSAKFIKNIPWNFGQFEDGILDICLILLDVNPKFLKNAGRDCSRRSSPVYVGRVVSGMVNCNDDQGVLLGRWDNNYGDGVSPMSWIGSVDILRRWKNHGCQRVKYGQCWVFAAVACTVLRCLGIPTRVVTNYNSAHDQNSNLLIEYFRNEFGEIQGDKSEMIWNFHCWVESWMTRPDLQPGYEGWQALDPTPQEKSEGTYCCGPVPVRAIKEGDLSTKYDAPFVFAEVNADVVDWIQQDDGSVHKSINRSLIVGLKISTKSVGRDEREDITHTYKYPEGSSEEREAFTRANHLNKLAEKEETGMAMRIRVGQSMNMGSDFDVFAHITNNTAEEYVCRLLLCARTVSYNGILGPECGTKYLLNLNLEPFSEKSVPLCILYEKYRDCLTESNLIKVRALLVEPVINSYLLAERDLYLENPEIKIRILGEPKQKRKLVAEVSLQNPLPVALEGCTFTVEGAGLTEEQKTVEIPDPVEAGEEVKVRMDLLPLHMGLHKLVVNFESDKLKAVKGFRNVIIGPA

[3] = target: T3, cysteines in MDA-MB-231 and Ramos cells (Homo sapiens, UniProt Q9NS86); conditions: 200 μM, insitu
T3 sequence (Q9NS86 1-450): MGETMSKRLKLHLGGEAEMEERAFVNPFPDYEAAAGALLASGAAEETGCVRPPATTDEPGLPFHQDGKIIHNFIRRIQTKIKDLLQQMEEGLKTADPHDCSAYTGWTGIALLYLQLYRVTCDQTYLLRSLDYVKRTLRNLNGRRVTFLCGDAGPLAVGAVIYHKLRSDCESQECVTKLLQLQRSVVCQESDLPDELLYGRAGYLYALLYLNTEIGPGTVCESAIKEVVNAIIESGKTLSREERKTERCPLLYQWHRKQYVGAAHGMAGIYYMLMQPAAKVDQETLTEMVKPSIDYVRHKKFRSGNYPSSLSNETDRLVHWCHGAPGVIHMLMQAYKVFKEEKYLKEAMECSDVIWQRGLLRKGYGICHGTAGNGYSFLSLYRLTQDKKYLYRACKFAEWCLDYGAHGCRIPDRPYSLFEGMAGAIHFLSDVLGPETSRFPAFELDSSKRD

[4] = target: cysteines in MDA-MB-231 and Ramos cells (Homo sapiens, UniProt Q9NUY8); conditions: 200 μM, insitu
Chain of cysteines in MDA-MB-231 and Ramos cells (Homo sapiens, UniProt Q9NUY8) (Q9NUY8 whole entry): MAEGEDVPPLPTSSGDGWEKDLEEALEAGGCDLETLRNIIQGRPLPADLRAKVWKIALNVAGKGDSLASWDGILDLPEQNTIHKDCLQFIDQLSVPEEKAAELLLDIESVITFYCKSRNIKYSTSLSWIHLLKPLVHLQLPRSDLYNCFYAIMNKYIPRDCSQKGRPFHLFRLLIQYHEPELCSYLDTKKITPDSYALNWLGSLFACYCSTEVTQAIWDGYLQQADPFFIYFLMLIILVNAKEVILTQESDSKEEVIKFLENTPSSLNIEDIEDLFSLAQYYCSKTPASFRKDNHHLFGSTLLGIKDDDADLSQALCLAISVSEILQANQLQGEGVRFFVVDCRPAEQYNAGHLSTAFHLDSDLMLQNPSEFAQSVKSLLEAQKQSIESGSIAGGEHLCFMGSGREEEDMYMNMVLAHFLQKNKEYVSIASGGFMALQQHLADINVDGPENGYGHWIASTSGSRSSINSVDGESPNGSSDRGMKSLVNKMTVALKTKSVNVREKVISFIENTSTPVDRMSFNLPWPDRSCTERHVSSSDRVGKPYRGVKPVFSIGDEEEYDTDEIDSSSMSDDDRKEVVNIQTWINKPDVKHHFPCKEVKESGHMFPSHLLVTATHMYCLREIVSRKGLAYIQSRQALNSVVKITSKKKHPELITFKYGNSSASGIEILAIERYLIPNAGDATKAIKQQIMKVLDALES

[5] = target: T4, cysteines in MDA-MB-231 and Ramos cells (Homo sapiens, UniProt P35611); conditions: 200 μM, insitu, 231
T4 sequence (P35611 1-737): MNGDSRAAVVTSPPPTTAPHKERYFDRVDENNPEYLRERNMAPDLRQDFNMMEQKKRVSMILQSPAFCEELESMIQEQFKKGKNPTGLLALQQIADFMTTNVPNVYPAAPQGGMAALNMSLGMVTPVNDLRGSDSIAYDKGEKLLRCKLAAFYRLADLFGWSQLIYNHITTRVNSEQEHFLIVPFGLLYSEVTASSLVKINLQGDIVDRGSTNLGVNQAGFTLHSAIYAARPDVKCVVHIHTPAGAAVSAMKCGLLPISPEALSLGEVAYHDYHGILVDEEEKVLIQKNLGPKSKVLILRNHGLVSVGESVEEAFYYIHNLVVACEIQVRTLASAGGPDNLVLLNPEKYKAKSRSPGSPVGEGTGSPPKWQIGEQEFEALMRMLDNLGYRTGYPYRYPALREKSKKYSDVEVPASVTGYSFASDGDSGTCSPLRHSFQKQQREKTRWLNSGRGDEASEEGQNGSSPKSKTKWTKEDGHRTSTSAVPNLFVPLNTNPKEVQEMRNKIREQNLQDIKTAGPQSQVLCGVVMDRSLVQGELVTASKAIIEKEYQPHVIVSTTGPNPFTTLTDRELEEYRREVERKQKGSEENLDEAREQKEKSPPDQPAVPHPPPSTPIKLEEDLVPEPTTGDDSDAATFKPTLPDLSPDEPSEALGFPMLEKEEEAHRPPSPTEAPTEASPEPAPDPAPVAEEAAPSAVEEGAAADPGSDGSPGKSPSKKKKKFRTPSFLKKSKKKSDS

[6] = target: T5, cysteines in MDA-MB-231 and Ramos cells (Homo sapiens, UniProt P78417); conditions: 200 μM, insitu
T5 sequence (P78417 1-241): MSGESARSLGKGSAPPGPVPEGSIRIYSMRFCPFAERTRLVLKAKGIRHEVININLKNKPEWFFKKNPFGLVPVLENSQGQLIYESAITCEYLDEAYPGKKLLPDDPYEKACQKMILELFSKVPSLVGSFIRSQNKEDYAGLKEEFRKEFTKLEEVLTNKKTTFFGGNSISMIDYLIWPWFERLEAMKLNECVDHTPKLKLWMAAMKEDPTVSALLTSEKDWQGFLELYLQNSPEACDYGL

[7] = target: cysteines in MDA-MB-231 and Ramos cells (Homo sapiens, UniProt Q9BUH6); conditions: 200 μM, insitu
Chain of cysteines in MDA-MB-231 and Ramos cells (Homo sapiens, UniProt Q9BUH6) (Q9BUH6 whole entry): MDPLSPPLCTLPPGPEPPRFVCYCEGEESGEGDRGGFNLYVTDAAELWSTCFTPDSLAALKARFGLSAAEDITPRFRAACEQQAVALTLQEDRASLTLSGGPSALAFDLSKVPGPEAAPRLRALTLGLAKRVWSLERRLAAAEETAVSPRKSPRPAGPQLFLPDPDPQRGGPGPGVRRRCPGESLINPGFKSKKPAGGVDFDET

Compound | isoTOP-ABPP ratio Q5T0N5_C69 [1] | isoTOP-ABPP ratio P21980_C277 [2] | isoTOP-ABPP ratio Q9NS86_C187 [3]; 231 | isoTOP-ABPP ratio Q9NUY8_C283 [4]; 231 | isoTOP-ABPP ratio P35611_C68 [5] | isoTOP-ABPP ratio P78417_C32 [6]; 231 | isoTOP-ABPP ratio Q9BUH6_C180 [7]; 231 | isoTOP-ABPP ratio Q9BUH6_C180 ([7]; ramos) | isoTOP-ABPP ratio P78417_C32 ([6]; ramos) | isoTOP-ABPP ratio Q9NS86_C187 ([3]; ramos) | isoTOP-ABPP ratio Q9NUY8_C283 ([4]; ramos)
O=C(CCl)NC12CC3CC(CC(C3)C1)C2 [compound 21] | 0.8 | 0.7 | 0.9 | 0.8 | 0.8 | – | – | – | – | – | –
CC(C)CCOCCNC(=O)CCl [compound 27] | 0.6 | 0.6 | 0.4 | 0.6 | 0.9 | 20.0 | – | – | – | – | –
COc1ccccc1OCCNC(=O)CCl [compound 28] | – | 0.4 | – | 0.7 | 1.7 | 20.0 | 1.1 | – | – | – | –
O=C(CCl)N1CCN(CC(=O)N2CCOCC2)CC1 [compound 29] | – | – | – | – | – | – | – | 1.5 | 20.0 | 1.7 | 1.3
C=CC(=O)N(Cc1cccnc1)c1cc(C(F)(F)F)cc(C(F)(F)F)c1 [compound 31] | – | – | 0.5 | 0.6 | – | 0.8 | 0.8 | – | 2.6 | – | –
C=CC(=O)Nc1cc(F)c(N2CCN(C(=O)OC(C)(C)C)CC2)c(F)c1 [compound 38] | 1.5 | 1.4 | 2.0 | 1.0 | 1.4 | 1.0 | 1.4 | – | – | – | –

More lines, now with the values ahead:

isoTOP-ABPP ratio Q5T0N5_C69 [1] | isoTOP-ABPP ratio P21980_C277 [2] | isoTOP-ABPP ratio Q9NS86_C187 [3]; 231 | isoTOP-ABPP ratio Q9NUY8_C283 [4]; 231 | isoTOP-ABPP ratio P35611_C68 [5] | isoTOP-ABPP ratio P78417_C32 [6]; 231 | isoTOP-ABPP ratio Q9BUH6_C180 [7]; 231 | isoTOP-ABPP ratio Q9BUH6_C180 ([7]; ramos) | isoTOP-ABPP ratio P78417_C32 ([6]; ramos) | isoTOP-ABPP ratio Q9NS86_C187 ([3]; ramos) | isoTOP-ABPP ratio Q9NUY8_C283 ([4]; ramos) | Compound
0.6 | 0.6 | 0.6 | 0.7 | 0.9 | 0.3 | 0.6 | – | – | – | – | Cc1ccc(C=C(C#N)C(=O)NCCN2CCOCC2)cc1 [compound 41]
5.4 | 1.1 | 3.1 | 2.7 | 20.0 | 1.9 | 5.5 | – | – | – | – | CC1CCc2ccccc2N1C(=O)CCl (stereo not drawn) [compound 45]
1.7 | 1.0 | 2.0 | 2.1 | 1.0 | – | – | – | – | – | – | O=C(CCl)Nc1cccc2ncccc12 [compound 51]

Source: patent US10670605B2, “Cysteine reactive probes and uses thereof” (The Scripps Research Institute, priority 2015, dated 2020)
